Several values for one entry are separate records, joined by “and”; a condition that tells them apart may be missing. Equal entries are not always repeated. Where two headings read alike, the source gives them in different places.
Assays:
[1] = tested on: testosterone-enhanced ventral prostate and seminal vesicle weights; test: Ventral Prostate and Seminal Vesicle Weight in vivo Assay; set-up: species or system rat; settings: immature castrated male Sprague Dawley rats, once daily for five days, usually orally 40 mg/kg, with testosterone propionate 2 mg/kg s.c. Further: key: 'active' if the non weight adjusted prostate weight was ≦40 mg or the % Inhibition prostate weight, body weight adjusted was ≧40% @ 2 mg/day dosage; ID50's, if determined, of ≦15 mg/day also indicated an 'active' compound; listed herein as 'inactive' as they did not meet the specified criteria defined above.
Outline: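 Wet weights of ventral prostate and seminal vesicles were taken on day six. Castrated immature male Sprague Dawley rats had received five daily doses of testosterone propionate (2 mg/kg s.c.) together with test compound, typically 40 mg/kg orally. Activity was scored from absolute prostate weight or body-weight-adjusted % inhibition.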

[2] = target: T1, androgen receptor (AdEasy+rAR, COS-7 cells) (Rattus norvegicus, UniProt P15207); test: COS-7 Whole-Cell Androgen Receptor Binding Assay, Adenovirus Transduction; settings: for inhibition at 3 µM / % Inhibition, COS Binding: concentration of 3000 nM
T1 construct: expressed in transfected cells; host or cells: COS-7 cells transduced with adenovirus AdEasy+rAR
T1 sequence (P15207 1-902): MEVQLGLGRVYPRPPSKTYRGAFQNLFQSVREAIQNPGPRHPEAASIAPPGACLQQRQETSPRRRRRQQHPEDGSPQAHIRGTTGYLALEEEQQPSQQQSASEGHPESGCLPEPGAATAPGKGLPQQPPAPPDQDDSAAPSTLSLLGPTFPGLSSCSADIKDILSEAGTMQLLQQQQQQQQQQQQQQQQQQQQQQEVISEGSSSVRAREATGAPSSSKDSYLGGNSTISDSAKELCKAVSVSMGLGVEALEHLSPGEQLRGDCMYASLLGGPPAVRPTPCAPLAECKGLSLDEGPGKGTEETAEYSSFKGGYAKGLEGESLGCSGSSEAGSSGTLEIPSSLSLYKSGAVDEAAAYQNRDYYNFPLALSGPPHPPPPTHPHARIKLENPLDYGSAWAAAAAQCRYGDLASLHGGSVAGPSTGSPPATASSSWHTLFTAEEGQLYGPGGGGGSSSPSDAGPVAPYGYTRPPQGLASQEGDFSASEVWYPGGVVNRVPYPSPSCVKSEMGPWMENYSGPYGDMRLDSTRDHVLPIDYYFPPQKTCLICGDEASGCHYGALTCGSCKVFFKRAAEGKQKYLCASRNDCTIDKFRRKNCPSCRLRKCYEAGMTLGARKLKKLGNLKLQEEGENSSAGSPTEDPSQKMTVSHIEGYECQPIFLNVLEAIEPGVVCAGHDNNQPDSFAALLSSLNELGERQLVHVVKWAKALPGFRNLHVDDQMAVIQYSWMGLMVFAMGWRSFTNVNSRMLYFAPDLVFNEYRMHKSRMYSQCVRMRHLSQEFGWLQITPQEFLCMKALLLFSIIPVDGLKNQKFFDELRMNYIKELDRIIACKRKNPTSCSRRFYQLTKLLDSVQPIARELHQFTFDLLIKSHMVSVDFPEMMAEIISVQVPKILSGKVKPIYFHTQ
Experimental: COS-7 cells were plated in 96-well plates at 20,000 cells per well, in a solution of DMEM/F12 (GIBCO) containing 10% (v/v) charcoal-treated fetal bovine serum (Hyclone) and lacking phenol red. The cells were then incubated overnight at 37° C. in 5% (v/v) humidified CO2.
Test compound solutions were prepared by diluting the test compound in 100% (v/v) DMSO, if necessary.
Next, 1 mL of DMEM/F12 lacking phenol red was pipetted into each of the wells of a 2-mL 96-well assay block. […] The wells were carefully mixed by pipette.
In a 15 mL or 50 mL sterile centrifuge tube, a dilution in DMEM/F12 of the adenovirus AdEasy+rAR at a moi of 1:50 per well was prepared.
The medium was removed from the 96-well plates by inversion and the plates dried very briefly, inverted, on a sterile towel. As soon as possible after medium removal, 40 μL of the diluted test compound was added to each well, in duplicate. […] The plates were then incubated for 48 hours at 37° C. in 5% (v/v) humidified CO2.
The medium was removed from the above incubated plates by inversion and dried. Each well was then washed with 0.35 mL of 1× PBS. The PBS was then removed from the plates by inversion and the plates dried.
To each well was then added 50 μL of 0.5% (v/v) Triton X-100 (Sigma) in 1× PBS and the plates placed on a rotary shaker for 5 min. The contents of each well were then transferred to an OptiPlate-96 (Packard) scintillation plate. To each well was then added 0.2 mL of Microscint-20 (Packard) and the wells counted on a TopCount (Packard).
Percent inhibition was determined by testing dilutions of the test compound (usually duplicates of 10 μM) in the binding assay. Counts per well were measured and percents of inhibition determined. […] Counts per well were measured and IC50s determined by linear regression.

[3] = target: T2, androgen receptor (AdEasy+rAR, L929 cells) (Rattus norvegicus, UniProt P15207); test: L929 Androgen Receptor Functional Assay, Adenovirus Transduction; type: cell-based; settings: for inhibition at 3 µM: L929, antagonist testing with R1881, 3000 nM; for IC50: antagonist testing with R1881
T2 construct: expressed in transfected cells; host or cells: L929 cells transduced with adenovirus AdEasy+rAR
T2 sequence (P15207 1-902): T1 sequence (P15207 1-902)
Outline: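 Luminescent reporter readout after 48 h at 37 °C: rat AR delivered by adenovirus (AdEasy+rAR, moi 1:500) into L929 cells grown without phenol red in charcoal-treated serum. Antagonist wells also received R1881 (2.5× dilution at 2.5 nM).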

[4] = read-out: IC50 (nM), COS Binding

Row | Structure (SMILES) | active / inactive: inhibition of testosterone-enhanced prostate weight [1] | IC50 [2, 4] | % Activity, L929 androgen receptor functional assay ([3]; agonist testing, 3000 nM) | inhibition at 3 µM [3] | inhibition at 3 µM [2] | other results
1 | O=[N+]([O-])c1cc2cc(C3(O)CCSCC3)[nH]c2cc1C(F)(F)F [Compound 17] | inactive | > 1500 nM | – | – | – | –
2 | CCSCC(C)(O)c1cc2cc(F)c(C(F)(F)F)cc2[nH]1 (centres unmarked) [Compound 159] | active | 240 nM | 2% | – | – | –
3 | CN(C)c1ccc(SCC(C)(O)c2cc3cc(Cl)c(C(F)(F)F)cc3[nH]2)cc1 (centres unmarked) [Compound 124] | inactive | > 3000 nM | −4% | – | – | –
4 | CC(O)(CSc1ccccc1N)c1cc2cc(Cl)c(C(F)(F)F)cc2[nH]1 (centres unmarked) [Compound 123] | inactive | > 3000 nM | −4% | – | – | % Activity, L929 androgen receptor functional assay ([3]; agonist testing, @ 8000 nM): 1 @ 8000 nM %
5 | CCS(=O)(=O)CC(C)(O)c1cc2cc(C#N)c(C(F)(F)F)cc2[nH]1 (single isomer, unassigned) [Compound 222, 2-(2-Ethanesulfonyl-1-hydroxy-1-methyl-ethyl)-6-trifluoromethyl-1H-indole-5-carbonitrile] | active | 1580 nM | – | 61% | 42% | EC50 ([3]; agonist testing): > 8000 nM; % Activity, L929 androgen receptor functional assay ([3]; agonist testing, @ 8000 nM): 0 @ 8000 nM %; IC50 [3]: 2410 nM
6 | CC(O)(CSCC(F)(F)F)c1cc2cc(Cl)c(C(F)(F)F)cc2[nH]1 (centres unmarked) [Compound 190] | active | 292 nM | 1% | 97% | 100% | –
7 | CCSCC(C)(O)c1cc2cc(C#N)c(Cl)cc2[nH]1 (centres unmarked) [Compound 225] | – | 142 nM | 1% | 97% | 82% | IC50 [3]: 229 nM
8 | CCSCC(C)(O)Cc1cc2cc([N+](=O)[O-])c(C(F)(F)F)cc2[nH]1 (centres unmarked) [Compound 10] | inactive | > 3000 nM | – | – | – | –
9 | C[S+]([O-])CCC(C)(O)c1cc2cc([N+](=O)[O-])c(C(F)(F)F)cc2[nH]1 (mixture of isomers) [Compound 50] | inactive | – | 2% | – | – | % Inhibition, COS Binding [2]: 7%
10 | CCC(O)(CS(=O)(=O)CC(F)(F)F)c1cc2cc([N+](=O)[O-])c(C(F)(F)F)cc2[nH]1 (centres unmarked) [Compound 191] | active | 840 nM | 2% | -6% | 65% | –
11 | CCSCC(C)(O)c1[nH]c2cc(C(F)(F)F)c(C#N)cc2c1C (single isomer, unassigned) [Compound 233, 2-(2-Ethylsulfanyl-1-hydroxy-1-methyl-ethyl)-3-methyl-6-trifluoromethyl-1H-indole-5-carbonitrile] | active | 45.6 nM | – | 97% | – | % Activity, L929 androgen receptor functional assay ([3]; agonist testing, 3000 nM, 3 µM): 0%; IC50 [3]: 69.2 nM; % Inhibition, COS Binding ([2]; 3 µM): 95% and 81%
12 | COc1ccc(S(=O)(=O)CC(C)(O)c2cc3cc(Cl)c(C(F)(F)F)cc3n2S(C)(=O)=O)cc1 (centres unmarked) [Compound 128] | – | – | −4% | 44% | 21% | IC50 ([2]; IC50 (nM), COS Binding): > 1500 nM
13 | CCCCSCC(C)(O)c1cc2cc([N+](=O)[O-])c(C(F)(F)F)cc2[nH]1 (centres unmarked) [Compound 200] | inactive | – | 1% | 96% | 97% | –
14 | CCC(O)(CSCC(F)(F)F)c1cc2cc(F)c(C(F)(F)F)cc2[nH]1 (centres unmarked) [Compound 194] | inactive | 320 nM | 2% | 40% | 80% | –
15 | CCSCC(C)(O)c1cc2cc([N+](=O)[O-])c(C(F)(F)F)cc2n1C (single isomer, unassigned) [Compound 231] | active | 665 nM and > 3000 nM | – | – | 73% | % Activity, L929 androgen receptor functional assay ([3]; agonist testing, 3000 nM, 3 µM): 0% and −1%; IC50 [3]: 3180 nM; % Inhibition, COS Binding ([2]; 3 µM): 78%
16 | CCSCC(C)(O)c1[nH]c2cc(C(F)(F)F)c(C#N)cc2c1C (centres unmarked) [Compound 219] | inactive | 6.2 nM | −3% | 103% | – | –
17 | CCSCC(C)(O)c1[nH]c2cc(C(F)(F)F)c([N+](=O)[O-])cc2c1C#N (single isomer, unassigned) [Compound 247] | inactive | 60.7 nM | – | – | 90% | –
18 | CCSCC(C)(O)c1cc2cc(Cl)ccc2n1S(C)(=O)=O (racemic) [Compound 154] | – | – | 2% | – | – | % Inhibition, L929 androgen receptor functional assay ([3]; antagonist testing with R1881, 3000 nM): 7%; % Inhibition, COS Binding [2]: 50%
19 | CCS(=O)(=O)CC(C)(O)c1cc2cc([N+](=O)[O-])c(C(F)(F)F)cc2[nH]1 (centres unmarked) [Compound 175] | active | > 3000 nM | – | – | – | –
20 | CSCC(C)(O)c1cc2cc(Cl)c(C(F)(F)F)cc2n1S(C)(=O)=O (centres unmarked) [Compound 134] | inactive | > 10000 nM | – | – | – | –
21 | CCSCC(C)(O)c1cc2ccc(C(F)(F)F)cc2n1S(C)(=O)=O (centres unmarked) [Compound 214] | – | > 3000 nM | – | – | – | –
22 | CCSCC(C)(O)c1[nH]c2cc(C(F)(F)F)c([N+](=O)[O-])cc2c1C#N (centres unmarked) [Compound 242] | inactive | 305 nM | – | – | 92% | –
23 | CCS(=O)(=O)CC(C)(O)c1[nH]c2cc(C(F)(F)F)c(C#N)cc2c1C (racemic) [Compound 246] | – | 616 nM | – | – | 70% | –
24 | CCSCC(C)(CO)c1cc2cc([N+](=O)[O-])c(C(F)(F)F)cc2[nH]1 (centres unmarked) [Compound 11] | inactive | > 3000 nM | – | – | – | –
25 | CCSCC(C)(OC)c1cc2cc([N+](=O)[O-])c(C(F)(F)F)cc2[nH]1 (centres unmarked) [Compound 167] | active | > 3000 nM | – | – | – | –
26 | CC(O)(CSc1ccc(C(=O)O)cc1)c1cc2cc(Cl)c(C(F)(F)F)cc2n1S(C)(=O)=O (centres unmarked) [Compound 132] | – | – | −5% | 48% | 8.7% | IC50 ([2]; IC50 (nM), COS Binding): > 3000 nM

Reference: patent US7282507B2, “Indole derivatives as selective androgen receptor modulators (SARMS)” (Janssen Pharmaceutica N.V., priority 2004, dated 2007)
